Results taken from patent US7772197B2, “1,3,5-triazines for treatment of viral diseases” (1,3,5-Triazines for Treatment of Viral Diseases, priority 2002, dated 2010).
pEC50: −log10 of the molar value. Like-named read-outs stand apart in the source and are kept apart here.

Experiments:
[1] = Toxicology in SCID-Hu Thy/Liv mice; assay type: in vivo; conditions: up to 100 mg/kg/day subcutaneously, 21 days
Method: After completion of this toxicology experiment, SN1212 was tested in HIV infected SCID-Hu mice. […] The discordance between viral infectivity and conventional surrogate markers of viral load, such as p24 or HIV RNA, is not surprising, as it has also been observed in vitro, and reflects the increased proportion of non-infectious viral particles in the presence of SN1212. It is also interesting to note that, of the treated groups, the immunologic profile of the SN1212 groups most closely resemble that of the uninfected group. This is compatible with the finding that infection with less “fit” viruses provides a relative clinical benefit by preserving cellular immunity.

HIV-1 LAI = experiment: Treatment of HIV-1-infected MT-2 cells with nucleoside analogues, p24 ELISA; assay type: cell-based
Method: The strains of HIV-1 used for primary drug screening are HIV-1 LAI or the appropriate strain of NRTI resistant HIV for studies of cross-resistance. Virus was propagated on MT-2 cells at an multiplicity of infection (MOI) of 0.01 to generate virus stocks. Briefly, the MT-2 cells were suspended in RPMI 1640 media supplemented with 10% fetal bovine serum, streptomycin and penicillin (cRPMI) and grown in a 37° C. incubator containing 5% CO2. Serial dilution of the virus and infection of MT-2 cells were followed by an ELISA detecting the capsid protein of HIV-1 (p24) and used to determine the titer of the virus stocks (50% tissue culture infectious dose (TCID50)). The ELISA was performed according to the manufacturer's instructions. The MT-2 cells are also used for visualizing the cytopathic effects of HIV-1 growth (e.g. syncytia formation).
(§1) 0.1 ml of a 3×10^5 cells/ml MT-2 cell suspension were seeded in 96-well plates at 3×10^4 cells/well. The compounds to be assayed were diluted in a separate 96-well at ten times (10×) the concentration needed for the screen. 22 μl of the 10× compounds was then added to the wells in triplicate except for six control wells, containing uninfected MT-2 cells alone (3 wells) and untreated HIV-infected MT-2 cells (3 wells). This was followed by the addition of HIV-1 at an MOI of 0.01, except for the three wells serving as the uninfected control. 0.1 ml of cRPMI was added to the uninfected well instead of virus. After the addition of virus, the 96-well plate was centrifuged at 1,200×g for two hours to enhance the adsorption of the virus by the MT-2 cells (see, e.g., O'Doherty, J. Virol. 74:10074-10080 (2000)). After the centrifugation step, the 96-well plate was then incubated in a 37° C. incubator containing 5% CO2 for three days. At the end of this time period the virus and cells were mixed by gentle pipetting followed by a 1 minute spin at 600×g to pellet the cells. The supernatant of each well was then serially diluted 1,000-fold into new 96-well plates to serve as inoculum for the next passage and assayed by ELISA for the amount of p24 produced. The next passage was performed as described above, except that the virus used to infect the cells was derived from the 1,000-fold dilution plate. To generate an EC50 value, half-log concentrations of mutagenic nucleoside or nucleotide analogue capable of eradicating virus in a single passage are tested as above to generate a dose-response curve.

[2] = Cytotoxicity on MT-2 cells (MTT); assay type: cell-based; conditions: human
Method: For each compound, cytotoxicity was evaluated on MT-2 cells. MT-2 cells were seeded at 3×10^4 cells/well in 96-well plates. […] After 5 days growth in a 37° C. incubator containing 5% CO2, MTT was added to a final concentration of 0.5 mg/ml and then incubated for four hours at 37° C. 10% SDS in 0.02 N HCl was added to lyse the cells overnight at 37° C. The plates were read on a Tecan Genius microplate reader at wavelengths of 570 nm/650 nm. The dose response curve was graphed by comparing the treated cells with the untreated control and the IC50 was determined for each compound.

[3] = tested on: HIV-1 RTMC, with 67N, 70R, 215F and 219Q mutations; experiment: Sensitivity of NRTI-resistant HIV strain RTMC, MT-2 cells; assay type: cell-based; conditions: Human immunodeficiency virus 1, MT2
Method: as §1, with “plate.” for “plate. To generate an EC50 value, half-log concentrations of mutagenic nucleoside or nucleotide analogue capable of eradicating virus in a single passage are tested as above to generate a dose-response curve.”
To determine if there is resistance of HIV NRTI resistant strains to mutagenic nucleoside analogues, NRTI resistant strains were grown in the presence of 5-aza-dC to determine whether the EC50 for 5-aza-dC is different from the WT strain (HIV-1 LAI). […] Growth of HIV NRTI resistant strains in the presence of the appropriate concentration of NRTI was used as a positive control.
Three HIV NRTI resistant strains (HIV-1 LAI-M184V, HIV-1 RTMDR1, with 74V, 41L, 106A and 215Y mutations, and HIV-1 RTMC, with 67N, 70R, 215F and 219Q mutations) were used to test the effectiveness of 5-aza-dC. […] Mutations include: M41L, E44D, A62V, K65R, D67N, T69DN, T69S_SS, K70R, L74V, V75I, F77L, Y115F, F116Y, V118I, Q151M, M184V, L210W, T215F and K219QE.
The effectiveness of DHAdC was tested against wild-type HIV strains and NRTI resistant HIV strains as described in Example 2. The following strains were tested: HIV-1 LAI, wild-type; HIV-I LAI-M184V-M184V mutation with resistance to lamivudine (3TC); HIV-1 RTMDR1-74V, 41L, 106A and 215Y mutations with resistance to zidovudine, didanosine, nevirapine and other non-nucleoside reverse transcriptase inhibitors; and HIV-1 RTMC-67N, 70R, 215F and 219Q with resistance to zidovudine.

NC1=NC(=O)N([C@H]2C[C@H](O)[C@@H](CO)O2)CN1 [DHAdC, 1-(2-Deoxy-β-D-ribofuranosyl)-4-amino-1,2,5,6-tetrahydro-1,3,5-triazin-2-one]
toxicity [1]: without any significant toxicity
pEC50 (HIV-1 LAI; Human immunodeficiency virus 1, MT2, read-out: EC50 against HIV, against HIV, strain not stated, 'in the range of'): ~8.00
pEC50 (HIV-1 LAI; Human immunodeficiency virus 1, MT2, wild-type HIV strain LAI, MT-2 cells): 5.52
IC50 at 5 days [2]: > 1000 µM
pEC50 [3]: 5.22
